Laboratory results published in patent EP2832348B1, “METHOD FOR DISSOLVING FLAVONOID COMPOUND, CARBON GLYCOSIDE COMPOUND, OR STILBENE COMPOUND AND METHOD FOR PREPARING AN INJECTION OR A POWDER FOR INJECTION” (Kunming Pharmaceutical Corp., priority 2012, dated 2013).
One block for each compound: values may come before it.

Assay: Dissolving the compound with solubilizer in heated, vacuum-stirred water for injection under nitrogen or argon gas (preparation tank)
Format: physicochemical
Settings: kept at 80 °C
Procedure: In view of this, the present invention provides a method for dissolving a carbon glycoside compound or a stilbene compound, characterized in that the method comprises the following steps: • heating water for injection to 80-98 °C, followed by stirring under vacuum condition at 30-80 °C, and then adding the carbon glycoside compound or the stilbene compound along with a solubilizer under the protection of nitrogen gas or argon gas to obtain a solution of said compounds; • wherein the solubilizer is one or a mixture of two or more of gastrodin, water-soluble cyclodextrin and ethanol, and wherein the water-soluble cyclodextrin is one or a mixture of two or more of methyl-β-cyclodextrin, thioether-β-cyclodextrin and sulfobutyl ether-β-cyclodextrin; and • wherein the mass ratio of the carbon glycoside compound or the stilbene compound to the solubilizer is 1:1-20.
Disclosed is a method for dissolving a flavonoid compound, a carbon glycoside compound or a stilbene compound, including: • mixing the flavonoid compound, the carbon glycoside compound or the stilbene compound with a solubilizer to obtain a reactant; and • heating water for injection to 80-98 °C, followed by stirring under vacuum conditions at 30-80 °C, and then adding the reactant under the protection of nitrogen gas or argon gas to obtain a solution of the reactant.
Considering the sensitivity to heat or light of the flavonoid compound, the carbon glycoside compound or the stilbene compound, a method is provided by heating water for injection to 80-98 °C to remove dissolved oxygen and other gases in water, which reduces the surface tension of water, increases the contact area of water with the flavonoid compound, the carbon glycoside compound or the stilbene compound, thus increasing the dissolution speed. Meanwhile, pre-heating the water for injection can effectively avoid degradation of the flavonoid compound, the carbon glycoside compound or the stilbene compound due to exposure to the dissolved oxygen, to eliminate unstable factors of the flavonoid compound, the carbon glycoside compound or the stilbene compound. The vacuum conditions can achieve further deoxygenation, facilitating the dissolution of the flavonoid compound, the carbon glycoside compound or the stilbene compound in water. Nitrogen gas or argon gas provides an inert atmosphere, which further reduces the surface tension of the materials, increases the contact area of the flavonoid compound, the carbon glycoside compound or the stilbene compound with water, and increases the dissolution speed.

- dissolved in (time) (Example 22: 10 g with Hydroxypropyl-β-cyclodextrin 50 g, Sodium bicarbonate 1 g in 1000 ml, water heated to 88 °C, vacuum stirring 35 minutes, argon gas): about 5 minutes
- dissolved in (time) (Example 26: 5 g with Gastrodin 100 g, Disodium edetate 0.1 g in 1000 ml, water heated to 95 °C, vacuum stirring 10 minutes, nitrogen gas): about 10 minutes
Compound: CC(=O)Cc1cc(=O)c2c(C)cc(O)c([C@@H]3O[C@H](CO)[C@@H](O)[C@H](O)[C@H]3O)c2o1 [Aloesin]

- dissolved in (time) (Example 9: 10 g with Sulfobutyl ether-β-cyclodextrin 50 g, Sodium bicarbonate 1 g in 1000 ml, water heated to 90 °C, vacuum stirring 20 minutes, argon gas): about 5 minutes
Compound: O=c1cc(-c2ccccc2)oc2cc(O)c(O)c(O)c12 [Baicalein]

- dissolved in (time) (Example 10: 5 g with Gastrodin 100 g, Disodium edetate 0.1 g, Sodium carbonate 5 g in 1000 ml, water heated to 95 °C, vacuum stirring 10 minutes, nitrogen gas): about 5 minutes
Compound: O=C(O)[C@H]1O[C@@H](Oc2cc3oc(-c4ccccc4)cc(=O)c3c(O)c2O)[C@H](O)[C@@H](O)[C@@H]1O [Baicalin]

- dissolved in (time) (Example 19: 25 g with Gastrodin 100 g, Methyl-β-cyclodextrin 50 g, Sodium bicarbonate 1 g in 1000 ml, water heated to 95 °C, vacuum stirring 10 minutes, argon gas): about 10 minutes
- dissolved in (time) (Example 23: 10 g with Methyl-β-cyclodextrin 50 g, Sodium bicarbonate 1 g in 1000 ml, water heated to 98 °C, vacuum stirring 10 minutes, argon gas): about 5 minutes
- dissolved in (time) (Example 30: 5 g with Gastrodin 100 g, Disodium edetate 0.1 g in 1000 ml, water heated to 95 °C, vacuum stirring 10 minutes, nitrogen gas): about 10 minutes
Compound: O=C1c2c(O)cccc2C([C@@H]2O[C@H](CO)[C@@H](O)[C@H](O)[C@H]2O)c2cc(CO)cc(O)c21 (some centres unmarked) [Barbaloin]

- dissolved in (time) (Example 21: 25 g with Gastrodin 100 g, Sulfobutyl ether-β-cyclodextrin 50 g, Sodium bicarbonate 1 g in 1000 ml, water heated to 85 °C, vacuum stirring 50 minutes, argon gas): about 10 minutes
- dissolved in (time) (Example 25: 10 g with Sulfobutyl ether-β-cyclodextrin 50 g, Sodium bicarbonate 1 g in 1000 ml, water heated to 95 °C, vacuum stirring 10 minutes, argon gas): about 5 minutes
- dissolved in (time) (Example 28: 5 g with Gastrodin 100 g, Disodium edetate 0.1 g in 1000 ml, water heated to 95 °C, vacuum stirring 10 minutes, nitrogen gas): about 10 minutes
Compound: COc1c(O)cc2c(c1O)[C@@H]1O[C@H](CO)[C@@H](O)[C@H](O)[C@H]1OC2=O [Bergenin]

- dissolved in (time) (Example 7: 10 g with Methyl-β-cyclodextrin 50 g, Sodium bicarbonate 1 g in 1000 ml, water heated to 80 °C, vacuum stirring 60 minutes, argon gas): about 5 minutes
Compound: O=c1c(-c2ccc(O)cc2)coc2cc(O)ccc12 [Daidzein]

- dissolved in (time) (Example 43: 50 g with Gastrodin 100 g, Methyl-β-cyclodextrin 30 g in 1000 ml, water heated to 98 °C, vacuum stirring 15 minutes, nitrogen gas): about 5 minutes
- dissolved in (time) (Example 49: 5 g with Sulfobutyl ether-β-cyclodextrin 30 g in 1000 ml, water heated to 95 °C, vacuum stirring 10 minutes, nitrogen gas): about 5 minutes
- dissolved in (time) (Example 57: 10 g with Hydroxypropyl-β-cyclodextrin 50 g (formula; text: sulfobutyl ether-β-cyclodextrin) in 1000 ml, water heated to 95 °C, vacuum stirring 10 minutes, nitrogen gas): about 5 minutes
- dissolved in (time) (Example 67: 5 g with Gastrodin 100 g in 1000 ml, water heated to 95 °C, vacuum stirring 10 minutes, nitrogen gas): about 5 minutes
Compound: COc1ccc(/C=C/c2cc(O)cc(O[C@@H]3O[C@H](CO)[C@@H](O)[C@H](O)[C@H]3O)c2)cc1 [Deoxyrhapontin (methyl polydatin), Deoxyrhapontin]

- dissolved in (time) (Example 13: 5 g with Gastrodin 100 g, Disodium edetate 0.1 g, Sodium carbonate 3 g in 1000 ml, water heated to 90 °C, vacuum stirring 25 minutes, nitrogen gas): about 5 minutes
Compound: O=C1CC(c2ccccc2)Oc2cc(O)c(O)c(O)c21 (centres unmarked) [Dihydrobaicalein]

- dissolved in (time) (Example 15: 5 g with Gastrodin 100 g, Disodium edetate 0.1 g, Sodium carbonate 2 g in 1000 ml, water heated to 95 °C, vacuum stirring 10 minutes, nitrogen gas): about 5 minutes
Compound: COc1ccc([C@@H]2CC(=O)c3c(O)cc(O)cc3O2)cc1O [Hesperetin]

- dissolved in (time) (Example 20: 25 g with Gastrodin 100 g, Thioether-β-cyclodextrin 50 g, Sodium bicarbonate 1 g in 1000 ml, water heated to 80 °C, vacuum stirring 60 minutes, argon gas): about 10 minutes
- dissolved in (time) (Example 24: 10 g with Thioether-β-cyclodextrin 50 g, Sodium bicarbonate 1 g in 1000 ml, water heated to 95 °C, vacuum stirring 10 minutes, argon gas): about 5 minutes
Compound: O=c1cc(-c2ccc(O)c(O)c2)oc2cc(O)c([C@@H]3O[C@H](CO)[C@@H](O)[C@H](O)[C@H]3O)c(O)c12 [Homoorientin]

- dissolved in (time) (Example 4: 25 g with Gastrodin 100 g, Thioether-β-cyclodextrin 50 g, Sodium carbonate 1 g in 1000 ml, water heated to 98 °C, vacuum stirring 5 minutes, argon gas): about 5 minutes
Compound: COc1ccc(-c2oc3cc(O)cc(O)c3c(=O)c2O)cc1 [Kaempferide]

- dissolved in (time) (Example 12: 5 g with Gastrodin 100 g, Disodium edetate 0.1 g, Sodium carbonate 3 g in 1000 ml, water heated to 95 °C, vacuum stirring 10 minutes, nitrogen gas): about 5 minutes
Compound: Oc1ccc2c(c1)OC[C@H]1c3cc4c(cc3O[C@@H]21)OCO4 [Maackiain]

- dissolved in (time) (Example 14: 5 g with Gastrodin 100 g, Disodium edetate 0.1 g, Sodium carbonate 2 g in 1000 ml, water heated to 98 °C, vacuum stirring 10 minutes, nitrogen gas): about 5 minutes
Compound: O=C1C[C@@H](c2ccc(O)cc2)Oc2cc(O)cc(O)c21 [Naringenin]

- dissolved in (time) (Example 41: 25 g with Gastrodin 80 g, Sulfobutyl ether-β-cyclodextrin 30 g in 1000 ml, water heated to 85 °C, vacuum stirring 45 minutes, nitrogen gas): about 5 minutes
- dissolved in (time) (Example 46: 5 g with Hydroxypropyl-β-cyclodextrin 30 g in 1000 ml, water heated to 83 °C, vacuum stirring 25 minutes, nitrogen gas): about 5 minutes
- dissolved in (time) (Example 54: 10 g with Hydroxypropyl-β-cyclodextrin 50 g in 1000 ml, water heated to 95 °C, vacuum stirring 10 minutes, nitrogen gas): about 5 minutes
- dissolved in (time) (Example 64: 5 g with Gastrodin 100 g in 1000 ml, water heated to 95 °C, vacuum stirring 10 minutes, nitrogen gas): about 5 minutes
Compound: OC[C@H]1O[C@@H](Oc2cc(O)cc(/C=C/c3ccc(O)cc3)c2)[C@H](O)[C@@H](O)[C@@H]1O [Polydatin]

- dissolved in (time) (Example 5: 25 g with Gastrodin 100 g, Sulfobutyl ether-β-cyclodextrin 50 g, Sodium carbonate 1 g in 1000 ml, water heated to 95 °C, vacuum stirring 3 minutes, argon gas): about 5 minutes
- dissolved in (time) (Example 6 (formula: Daidzin 10 g) with Hydroxypropyl-β-cyclodextrin 50 g, Sodium bicarbonate 1 g in 1000 ml, water heated to 95 °C, vacuum stirring 8 minutes, argon gas): about 5 minutes
Compound: O=c1c(-c2ccc(O)cc2)coc2c([C@@H]3O[C@H](CO)[C@@H](O)[C@H](O)[C@H]3O)c(O)ccc12 [Puerarin]

- dissolved in (time) (Example 3: 25 g with Gastrodin 100 g, Methyl-β-cyclodextrin 50 g, Sodium carbonate 1 g in 1000 ml, water heated to 95 °C, vacuum stirring 1 minute, argon gas): about 5 minutes
Compound: O=c1c(O)c(-c2ccc(O)c(O)c2)oc2cc(O)cc(O)c12 [Quercetin]

- dissolved in (time) (Example 39: 25 g with Gastrodin 80 g, Methyl-β-cyclodextrin 30 g in 1000 ml, water heated to 80 °C, vacuum stirring 60 minutes, nitrogen gas): about 5 minutes
- dissolved in (time) (Example 44: 50 g with Gastrodin 100 g, Thioether-β-cyclodextrin 30 g in 1000 ml, water heated to 95 °C, vacuum stirring 10 minutes, nitrogen gas): about 5 minutes
- dissolved in (time) (Example 50: 10 g with Hydroxypropyl-β-cyclodextrin 30 g in 1000 ml, water heated to 95 °C, vacuum stirring 10 minutes, nitrogen gas): about 5 minutes
- dissolved in (time) (Example 60: 20 g with Thioether-β-cyclodextrin 50 g in 1000 ml, water heated to 95 °C, vacuum stirring 10 minutes, nitrogen gas): about 5 minutes
Compound: Oc1ccc(C=Cc2cc(O)cc(O)c2)cc1 [Resveratrol]

- dissolved in (time) (Example 42: 50 g with Gastrodin 100 g, Hydroxypropyl-β-cyclodextrin 30 g in 1000 ml, water heated to 95 °C, vacuum stirring 10 minutes, nitrogen gas): about 5 minutes
- dissolved in (time) (Example 48: 5 g with Thioether-β-cyclodextrin 30 g in 1000 ml, water heated to 92 °C, vacuum stirring 40 minutes, nitrogen gas): about 5 minutes
- dissolved in (time) (Example 56: 10 g with Thioether-β-cyclodextrin 50 g in 1000 ml, water heated to 95 °C, vacuum stirring 10 minutes, nitrogen gas): about 5 minutes
- dissolved in (time) (Example 66: 5 g with Gastrodin 100 g in 1000 ml, water heated to 95 °C, vacuum stirring 10 minutes, nitrogen gas): about 5 minutes
Compound: COc1ccc(/C=C/c2cc(O)cc(O[C@@H]3O[C@H](CO)[C@@H](O)[C@H](O)[C@H]3O)c2)cc1O [Rhapontin]

Compound: Breviscapine
- dissolved in (time) (Example 1: 5 g with Gastrodin 100 g, Sodium carbonate 10 g in 1000 ml, water heated to 95 °C, vacuum stirring 10 minutes, nitrogen gas): about 5 minutes
- dissolved in (time) (Example 2: 25 g with Gastrodin 100 g, Hydroxypropyl-β-cyclodextrin 50 g, Sodium carbonate 1 g in 1000 ml, water heated to 95 °C, vacuum stirring 10 minutes, argon gas): about 5 minutes
- dissolved in (time) (Example 8 (formula: Wogonin 10 g) with Thioether-β-cyclodextrin 50 g, Sodium bicarbonate 1 g in 1000 ml, water heated to 85 °C, vacuum stirring 30 minutes, argon gas): about 5 minutes

Compound: Taxinine
- dissolved in (time) (Example 16: 12 g with Sulfobutyl ether-β-cyclodextrin 40 g in 1000 ml, water heated to 95 °C, vacuum stirring 10 minutes, nitrogen gas): about 5 minutes
